{
  "source": "patent US8703829B2",
  "about": "“Therapeutic compounds” (University of Louisville Research Foundation, Inc., priority 2007, dated 2014)",
  "key": {"[1]": {"tested_on": "A549 human non-small cell lung cancer xenografts", "format": "in vivo", "excerpt": "FIG. 2. […] (A) Tumor growth appeared to be reduced in mice treated with the compound of Example 1, but the effect was not statistically significant (p≧0.13). […] Compare with the mean±SE in the control group.\nTest F In-vivo Effects of Compound of Example 1.\nThe following study was designed to assess toxicity and activity in female nude mice bearing A549 human non-small cell lung cancer xenografts. Athymic nude mice were inoculated subcutaneously (s.c.) with A549 cells and treatment began after small tumors were visible. The compound of Example 1 was prepared at 100 mg/ml or 50 mg/ml in DMSO and diluted 1:10 with sterile PBS. Mice were treated by intraperitoneal (i.p.) injections of 100 μl of these solutions, equivalent to approximately 25 mg/kg or 50 mg/kg; the control group received identical injections of vehicle (10% DMSO in PBS). Mice received injections of the compound of Example 1 or vehicle five times per week (once per day, except on weekends) for up to 30 injections. […] Evaluating the long-term outcome was complicated by the fact that several animals in the compound of Example 1 treated groups developed tumor necrosis/ulceration and had to be euthanized before the end of the experiment, as required by IACUC protocol. This tumor necrosis is believed to be treatment-related as it occurred in 5/12 treated animals, but 0/6 of the control group. […] The overall response seemed to be equivalent or better in the low dose group compared with the high dose group, but that may be consistent with the mechanism of action, since a similar effect has been observed for decitabine in humans."}, "[2]": {"tested_on": "DNA methyltransferase activity of HeLa nuclear extracts", "experiment": "Test E experiment 3: DNA methyltransferase activity of purified HeLa nuclear extracts incubated in vitro with compound (EpiQuik kit)", "format": "biochemical", "settings": "experiment 3: 20 μg HeLa nuclear extracts incubated in vitro with 500 nM; untreated 0.264", "description": "(§1) Test E The Methyltransferase Activity of the Compound of Example 1 was Evaluated as Follows.\n(§2) For experiments 1 and 2, A549 non-small cell lung cancer cells were incubated with the compound of Example 1 (1 μM final concentration) or vehicle (untreated) for 2 h and nuclear extracts were prepared by standard methods. The total DNA methyltransferase activity of the extracts was measured using EpiQuik™ DNA Methyltransferase Activity/Inhibition Assay Kit (Epigentek, Brooklyn, N.Y.), according to the manufacturer's directions. For experiment 3, the assay was carried out using purified HeLa nuclear extracts in the presence of the compound of Example 1 (500 nM final concentration) or vehicle (untreated).\n(§3) The assay involves incubation of nuclear extracts (as a source of DNA methyltransferase activity) with immobilized DNA substrate in the presence of Adomet (methyl donor). The DNA methyltransferase activity was measured by determining levels of 5-methylcytosine in the DNA substrate using a primary antibody to 5-methylcytosine and a secondary antibody for colorimetric detection at 450 nm."}, "[3]": {"tested_on": "panel of 60 human tumor cell lines", "experiment": "Test D: screen against a panel of 60 human tumor cell lines", "format": "cell-based", "excerpt": "Test D Anti-Cancer Activity\nThe compound of Example 1 below was screened against a panel of 60 human tumor cell lines."}, "[4]": {"tested_on": "total DNA methyltransferase activity in A549 non-small cell lung cancer cells", "experiment": "Test E experiments 1 and 2: DNA methyltransferase activity of nuclear extracts from treated A549 cells (EpiQuik kit)", "format": "cell-based, human", "description": "as §1, §2, §3"}},
  "data": [
    {"compound": "CCCCCC(O)C#CC(F)(F)Br", "note": "(stereo not drawn) [Example 1, 1-bromo-1,1-difluoro-non-2-yn-4-ol]", "values": [
      {"measurement": "tumor necrosis/ulceration, treated animals affected", "setting": "[1]; approx. 25 or 50 mg/kg i.p., 0/6 in the control group", "result": "5/12"},
      {"measurement": "tumor growth compared to control-treated mice", "setting": "[1]; approx. 25 or 50 mg/kg i.p., difference not statistically significant (p≧0.13)", "result": "grew slower"},
      {"measurement": "size of ulcerated tumors versus control group at the same time point", "setting": "[1]; treated mice euthanized early due to tumor necrosis", "result": "substantially smaller"},
      {"measurement": "Relative DNA Methyltransferase Activity", "setting": "[2]", "result": 0.092},
      {"measurement": "GI50", "setting": "[3]; Homo sapiens, all seven breast cancer cell lines, including a doxorubicin-resistant line", "result": "10 to 66", "unit": "nM"},
      {"measurement": "activity by tumor type", "setting": "[3]; breast, prostate, colon and brain (CNS) tumor cells", "result": "highly active"},
      {"measurement": "activity by tumor type", "setting": "[3]; other tumor types, e.g. melanomas", "result": "less potent"},
      {"measurement": "Relative DNA Methyltransferase Activity", "setting": "[4]; experiment 1: nuclear extracts from lung cancer cells treated 1 μM for 2 h, untreated 0.114", "result": 0.073},
      {"measurement": "Relative DNA Methyltransferase Activity", "setting": "[4]; experiment 2 (repeat): nuclear extracts from lung cancer cells treated 1 μM for 2 h, untreated 0.122", "result": 0.075}
    ]}
  ]
}
